Reference: patent US20220401514A1, “ANTIMICROBIAL, BACTERIOPHAGE-DERIVED POLYPEPTIDES AND THEIR USE AGAINST GRAM-NEGATIVE AND ACID-FAST BACTERIA” (CONTRAFECT CORPORATION, priority 2019, published 2022)

Tests used:
[1] = test system: outer membrane of Gram-negative bacteria (including P. aeruginosa, E. cloacae, K. pneumoniae, E. coli, and A. baumannii); assay: Outer membrane permeabilization, NPN uptake; type: cell-based
Description: NPN is largely excluded by intact Gram-negative bacteria, but enhanced uptake of NPN may occur in cells having a damaged or permeable outer membrane. NPN fluoresces strongly under hydrophobic conditions and weakly under aqueous conditions. Therefore, NPN's interaction with membrane phospholipids in the bacterial envelope increases its fluorescence signal and can be used as an indication of a compromised bacterial membrane and a measurement of the outer membrane permeability.

[2] = test system: isolates identified as having novel antibiotic resistance; assay: MIC against CDC novel antibiotic resistance panel (n = 11); type: cell-based
Description: MIC values were determined using the methodology described above, i.e., the standard broth microdilution reference method defined by CLSI.
See wwwn.cdc.gov/ARIsolateBank/Panel/PanelDetail?ID=10.

[3] = test system: A. baumannii strain BAA-747 persister cells; assay: Activity against persister cells, A. baumannii; type: cell-based, Acinetobacter baumannii
[4] = test system: inner membrane of Gram-negative bacteria (including P. aeruginosa, E. cloacae, K. pneumoniae, E. coli, and A. baumannii); assay: Inner membrane depolarization, diSC3-5 release; type: cell-based
Description: The mechanism of action of Chp peptides disclosed herein can also be evaluated by measuring the depolarization of the inner membrane of Gram-negative bacteria. […] Upon permeabilization of the outer membrane, the ability of Chp peptides to induce dissipation of the cytoplasmic membrane electrical potential gradient (Δψ) may be examined, for example by following the release of 3,3′-dipropylthiadicarbocyanine (diSC3-5) as a function of time compared to an untreated control. DiSC3-5 is a fluorophore that is a caged cation concentrated within the bacterial inner membrane and under the influence of the bacterial membrane electrical potential gradient. At high concentrations, diSC3-5 self-quenches, leading to the suppression of fluorescence. When the inner membrane deteriorates or becomes leaky for cations, including protons, the A it dissipates, which leads to a release of diSC3-5 and a subsequent increase in fluorescence.

[5] = test system: P. aeruginosa strain CFS-1292; assay: LIVE/DEAD stain microscopy in 100% human serum; type: cell-based, Pseudomonas aeruginosa; settings: 15 minutes, 10 μg/mL
Excerpt: Samples were visualized by BF and fluorescence microscopy (10 ms exposure). […] was used to label live cells, and PI was used to label damaged and dead cells.

[6] = test system: Acinetobacter baumannii isolates; assay: MIC against CDC Acinetobacter baumannii panel (n = 41); type: cell-based
[7] = test system: Gram-negative bacteria (including P. aeruginosa, E. cloacae, K. pneumoniae, E. coli, and A. baumannii); assay: Propidium iodide uptake; type: cell-based
Excerpt: The damage caused by the Chp peptides disclosed herein to the outer and inner membranes of Gram-negative bacteria can also be assessed with impermeable dyes such as propidium iodide. […] AGENTS CHEMO. 2012; 56:5698-5708.

[8] = test system: Pseudomonas aeruginosa isolates; assay: MIC against CDC Pseudomonas aeruginosa panel (n = 55); type: cell-based
[9] = novel antibiotic resistance panel

## MRLKMARRRYRLPRRRSRRLFSRTALRMHPRNRLRRIMRGGIRF [Chp2]
[1]
  outer membrane permeability (NPN uptake): dose-dependent increase in outer membrane permeability, equivalent to that of colistin, LL37, and melittin
[2]; Bank No. 0346, Escherichia coli
  MIC: 0.25 µg/mL
[2]; Bank No. 0347, Klebsiella pneumoniae
  MIC: 0.5 µg/mL
[2]; Bank No. 0348, Escherichia coli
  MIC: 0.5 µg/mL
[2]; Bank No. 0349, Escherichia coli
  MIC: 1 µg/mL
[2]; Bank No. 0350, Escherichia coli
  MIC: 1 µg/mL
[2]; Bank No. 0493, Escherichia coli
  MIC: 0.5 µg/mL
[2]; Bank No. 0494, Escherichia coli
  MIC: 1 µg/mL
[2]; Bank No. 0495, Escherichia coli
  MIC: 1 µg/mL
[2]; Bank No. 0497, Klebsiella pneumoniae
  MIC: 0.5 µg/mL
[2]; Bank No. 0538, Escherichia coli
  MIC: 1 µg/mL
[2]; Bank No. 0637, Citrobacter freundi
  MIC: 1 µg/mL
[2]; [9]
  MIC50: 0.5 µg/mL
  MIC90: 1 µg/mL
[3]; A. baumannii BAA-747 persister cells, 1 hour at 37° C., Run #1, limit of detection 1.6-log10 CFU/mL
  MIC Log10 (CFU/mL) Run #1: 1.5 Log10 (CFU/mL)
[3]; A. baumannii BAA-747 persister cells, 1 hour at 37° C., Run #2, limit of detection 1.6-log10 CFU/mL
  MIC Log10 (CFU/mL) Run #2: 2.2 Log10 (CFU/mL)
[3]; A. baumannii BAA-747 persister cells, 1 hour at 37° C., Run #3, limit of detection 1.6-log10 CFU/mL
  MIC Log10 (CFU/mL) Run #3: 1.5 Log10 (CFU/mL)
[3]; A. baumannii BAA-747 persister cells, average of 3 runs
  MIC Log10 (CFU/mL) Average: 1.8 Log10 (CFU/mL)
[3]; A. baumannii BAA-747 persister cells, log10 CFU/mL reduction as compared to buffer
  Delta Log: 3.1
[3]; A. baumannii persister cells, 1 hour at 37° C.
  log10 CFU/mL reduction as compared to buffer: 3.1 log10 CFU/mL
[4]
  membrane depolarization (diSC3-5): dose-dependent increase in membrane depolarization, equivalent or superior to that of melittin, LL37, RI-18, and PMBN
[5]
  killing of P. aeruginosa, Live/Dead Cell Viability Kit: reduction of live bacteria
[6]; Actinobacter baumannii panel
  MIC50: 0.5 µg/mL
  MIC90: 1 µg/mL
[6]; CDC Antibiotic-Resistant Bank No. 0273
  MIC: 1 µg/mL
[6]; CDC Antibiotic-Resistant Bank No. 0274
  MIC: 0.5 µg/mL
[6]; CDC Antibiotic-Resistant Bank No. 0275
  MIC: 0.5 µg/mL
[6]; CDC Antibiotic-Resistant Bank No. 0276
  MIC: 0.5 µg/mL
[6]; CDC Antibiotic-Resistant Bank No. 0277
  MIC: 0.5 µg/mL
[6]; CDC Antibiotic-Resistant Bank No. 0278
  MIC: 1 µg/mL
[6]; CDC Antibiotic-Resistant Bank No. 0279
  MIC: 1 µg/mL
[6]; CDC Antibiotic-Resistant Bank No. 0280
  MIC: 1 µg/mL
[6]; CDC Antibiotic-Resistant Bank No. 0281
  MIC: 1 µg/mL
[6]; CDC Antibiotic-Resistant Bank No. 0282
  MIC: 0.5 µg/mL
[6]; CDC Antibiotic-Resistant Bank No. 0283
  MIC: 1 µg/mL
[6]; CDC Antibiotic-Resistant Bank No. 0284
  MIC: 0.5 µg/mL
[6]; CDC Antibiotic-Resistant Bank No. 0285
  MIC: 0.5 µg/mL
[6]; CDC Antibiotic-Resistant Bank No. 0286
  MIC: 1 µg/mL
[6]; CDC Antibiotic-Resistant Bank No. 0287
  MIC: 0.5 µg/mL
[6]; CDC Antibiotic-Resistant Bank No. 0288
  MIC: 0.25 µg/mL
[6]; CDC Antibiotic-Resistant Bank No. 0289
  MIC: 0.5 µg/mL
[6]; CDC Antibiotic-Resistant Bank No. 0290
  MIC: 0.5 µg/mL
[6]; CDC Antibiotic-Resistant Bank No. 0291
  MIC: 0.5 µg/mL
[6]; CDC Antibiotic-Resistant Bank No. 0292
  MIC: 0.5 µg/mL
[6]; CDC Antibiotic-Resistant Bank No. 0293
  MIC: 0.5 µg/mL
[6]; CDC Antibiotic-Resistant Bank No. 0294
  MIC: 0.5 µg/mL
[6]; CDC Antibiotic-Resistant Bank No. 0295
  MIC: 1 µg/mL
[6]; CDC Antibiotic-Resistant Bank No. 0296
  MIC: 0.5 µg/mL
[6]; CDC Antibiotic-Resistant Bank No. 0297
  MIC: 1 µg/mL
[6]; CDC Antibiotic-Resistant Bank No. 0298
  MIC: 0.5 µg/mL
[6]; CDC Antibiotic-Resistant Bank No. 0299
  MIC: 1 µg/mL
[6]; CDC Antibiotic-Resistant Bank No. 0300
  MIC: 2 µg/mL
[6]; CDC Antibiotic-Resistant Bank No. 0301
  MIC: 1 µg/mL
[6]; CDC Antibiotic-Resistant Bank No. 0302
  MIC: 1 µg/mL
[6]; CDC Antibiotic-Resistant Bank No. 0303
  MIC: 1 µg/mL
[6]; CDC Antibiotic-Resistant Bank No. 0304
  MIC: 0.5 µg/mL
[6]; CDC Antibiotic-Resistant Bank No. 0305
  MIC: 0.5 µg/mL
[6]; CDC Antibiotic-Resistant Bank No. 0306
  MIC: 0.5 µg/mL
[6]; CDC Antibiotic-Resistant Bank No. 0307
  MIC: 1 µg/mL
[6]; CDC Antibiotic-Resistant Bank No. 0308
  MIC: 1 µg/mL
[6]; CDC Antibiotic-Resistant Bank No. 0309
  MIC: 1 µg/mL
[6]; CDC Antibiotic-Resistant Bank No. 0310
  MIC: 0.5 µg/mL
[6]; CDC Antibiotic-Resistant Bank No. 0311
  MIC: 0.5 µg/mL
[6]; CDC Antibiotic-Resistant Bank No. 0312
  MIC: 0.5 µg/mL
[6]; CDC Antibiotic-Resistant Bank No. 0313
  MIC: 0.5 µg/mL
[7]
  cell envelop permeability (propidium iodide uptake): dose-dependent increase in cell envelop permeability was equivalent to that of colistin, LL37, and melittin
[8]; CDC Antibiotic-Resistant Bank No. 0229
  MIC: 0.5 µg/mL
[8]; CDC Antibiotic-Resistant Bank No. 0230
  MIC: 0.5 µg/mL
[8]; CDC Antibiotic-Resistant Bank No. 0231
  MIC: 0.5 µg/mL
[8]; CDC Antibiotic-Resistant Bank No. 0232
  MIC: 0.5 µg/mL
[8]; CDC Antibiotic-Resistant Bank No. 0233
  MIC: 0.5 µg/mL
[8]; CDC Antibiotic-Resistant Bank No. 0234
  MIC: 0.5 µg/mL
[8]; CDC Antibiotic-Resistant Bank No. 0235
  MIC: 0.5 µg/mL
[8]; CDC Antibiotic-Resistant Bank No. 0236
  MIC: 0.5 µg/mL
[8]; CDC Antibiotic-Resistant Bank No. 0237
  MIC: 0.5 µg/mL
[8]; CDC Antibiotic-Resistant Bank No. 0238
  MIC: 0.5 µg/mL
[8]; CDC Antibiotic-Resistant Bank No. 0239
  MIC: 1 µg/mL
[8]; CDC Antibiotic-Resistant Bank No. 0240
  MIC: 1 µg/mL
[8]; CDC Antibiotic-Resistant Bank No. 0241
  MIC: 1 µg/mL
[8]; CDC Antibiotic-Resistant Bank No. 0242
  MIC: 0.5 µg/mL
[8]; CDC Antibiotic-Resistant Bank No. 0243
  MIC: 0.5 µg/mL
[8]; CDC Antibiotic-Resistant Bank No. 0244
  MIC: 1 µg/mL
[8]; CDC Antibiotic-Resistant Bank No. 0245
  MIC: 0.5 µg/mL
[8]; CDC Antibiotic-Resistant Bank No. 0246
  MIC: 1 µg/mL
[8]; CDC Antibiotic-Resistant Bank No. 0247
  MIC: 1 µg/mL
[8]; CDC Antibiotic-Resistant Bank No. 0248
  MIC: 1 µg/mL
[8]; CDC Antibiotic-Resistant Bank No. 0249
  MIC: 1 µg/mL
[8]; CDC Antibiotic-Resistant Bank No. 0250
  MIC: 1 µg/mL
[8]; CDC Antibiotic-Resistant Bank No. 0251
  MIC: 1 µg/mL
[8]; CDC Antibiotic-Resistant Bank No. 0252
  MIC: 1 µg/mL
[8]; CDC Antibiotic-Resistant Bank No. 0253
  MIC: 1 µg/mL
[8]; CDC Antibiotic-Resistant Bank No. 0254
  MIC: 1 µg/mL
[8]; CDC Antibiotic-Resistant Bank No. 0255
  MIC: 1 µg/mL
[8]; CDC Antibiotic-Resistant Bank No. 0256
  MIC: 1 µg/mL
[8]; CDC Antibiotic-Resistant Bank No. 0257
  MIC: 1 µg/mL
[8]; CDC Antibiotic-Resistant Bank No. 0258
  MIC: 2 µg/mL
[8]; CDC Antibiotic-Resistant Bank No. 0259
  MIC: 1 µg/mL
[8]; CDC Antibiotic-Resistant Bank No. 0260
  MIC: 0.5 µg/mL
[8]; CDC Antibiotic-Resistant Bank No. 0261
  MIC: 1 µg/mL
[8]; CDC Antibiotic-Resistant Bank No. 0262
  MIC: 1 µg/mL
[8]; CDC Antibiotic-Resistant Bank No. 0263
  MIC: 1 µg/mL
[8]; CDC Antibiotic-Resistant Bank No. 0264
  MIC: 1 µg/mL
[8]; CDC Antibiotic-Resistant Bank No. 0265
  MIC: 1 µg/mL
[8]; CDC Antibiotic-Resistant Bank No. 0266
  MIC: 1 µg/mL
[8]; CDC Antibiotic-Resistant Bank No. 0267
  MIC: 1 µg/mL
[8]; CDC Antibiotic-Resistant Bank No. 0268
  MIC: 1 µg/mL
[8]; CDC Antibiotic-Resistant Bank No. 0269
  MIC: 1 µg/mL
[8]; CDC Antibiotic-Resistant Bank No. 0270
  MIC: 0.5 µg/mL
[8]; CDC Antibiotic-Resistant Bank No. 0271
  MIC: 1 µg/mL
[8]; CDC Antibiotic-Resistant Bank No. 0272
  MIC: 1 µg/mL
[8]; CDC Antibiotic-Resistant Bank No. 0763
  MIC: 1 µg/mL
[8]; CDC Antibiotic-Resistant Bank No. 0764
  MIC: 1 µg/mL
[8]; CDC Antibiotic-Resistant Bank No. 0765
  MIC: 1 µg/mL
[8]; CDC Antibiotic-Resistant Bank No. 0766
  MIC: 1 µg/mL
[8]; CDC Antibiotic-Resistant Bank No. 0767
  MIC: 1 µg/mL
[8]; CDC Antibiotic-Resistant Bank No. 0768
  MIC: 0.5 µg/mL
[8]; CDC Antibiotic-Resistant Bank No. 0769
  MIC: 1 µg/mL
[8]; CDC Antibiotic-Resistant Bank No. 0770
  MIC: 1 µg/mL
[8]; CDC Antibiotic-Resistant Bank No. 0771
  MIC: 1 µg/mL
[8]; CDC Antibiotic-Resistant Bank No. 0772
  MIC: 1 µg/mL
[8]; CDC Antibiotic-Resistant Bank No. 0773
  MIC: 1 µg/mL
[8]; Pseudomonas aeruginosa panel
  MIC50: 1 µg/mL
  MIC90: 1 µg/mL
